Source: publication PMC8545931, “Production and immobilization of β-glucanase from Aspergillus niger with its applications in bioethanol production and biocontrol of phytopathogenic fungi” (Scientific Reports, 2021)
pIC50: −log10 of the molar value. Blank lines part the entries; values can stand above or below the compound they belong to.

Biological target: T1, β-glucanase
T1 construct: gene eglA; native secreted enzyme purified from culture supernatant (ammonium sulfate, DEAE-Cellulose, Sephadex G200); 56 kDa on SDS-PAGE; gene not identified; assayed as CMC hydrolysis
Experiment: residual CMC hydrolysis, DNS reducing sugar
Assay type: biochemical, Aspergillus niger
Details: free enzyme, standard assay 0.5% CMC stock, citrate pH 5.0, 40 °C

SMILES: CC(O)C(C)O (stereo not shown) [2.3-butanediol]
pIC50 (arginyl reagent, printed as 2,3-butanediol, probably 2,3-butanedione meant): 2.33

pIC50 (covalent, tyrosyl reagent): 2.05
SMILES: CC(=O)n1ccnc1 [N-Acetyl imidazole]

pIC50 (covalent, tryptophanyl reagent): 2.19
SMILES: O=C1CCC(=O)N1Br [N-bromosuccinimide]

SMILES: [Hg+][c]1ccccc1 [phenylmercuric acetate]
pIC50 (covalent, sulfhydryl reagent): 2.26
